Measured values reported in article PMC9351465, “Mechanism-based heparanase inhibitors reduce cancer metastasis in vivo” (Proceedings of the National Academy of Sciences of the …, 2022).
Values joined by “and” are separate entries in the source; they are usually repeats but may differ in a detail not shown here. Equal values may be shown once.

Tests used:
HPSE = molecular target: T1, HPSE (Homo sapiens, UniProt Q9Y251); test: H35SPG basement membrane (ECM) digest by recombinant HPSE; format: biochemical
T1 sequence (Q9Y251 158-543 limits assumed): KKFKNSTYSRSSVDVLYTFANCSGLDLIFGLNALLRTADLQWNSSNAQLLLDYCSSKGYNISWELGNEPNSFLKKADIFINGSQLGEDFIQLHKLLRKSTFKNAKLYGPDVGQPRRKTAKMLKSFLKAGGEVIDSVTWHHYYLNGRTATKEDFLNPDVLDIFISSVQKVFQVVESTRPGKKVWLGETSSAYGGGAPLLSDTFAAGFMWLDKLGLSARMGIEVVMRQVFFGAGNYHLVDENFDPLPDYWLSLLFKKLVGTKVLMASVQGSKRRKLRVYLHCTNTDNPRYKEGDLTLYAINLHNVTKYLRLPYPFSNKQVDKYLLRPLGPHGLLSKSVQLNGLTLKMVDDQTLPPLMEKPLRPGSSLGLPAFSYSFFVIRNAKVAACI
T1 sequence (Q9Y251 36-109 limits assumed): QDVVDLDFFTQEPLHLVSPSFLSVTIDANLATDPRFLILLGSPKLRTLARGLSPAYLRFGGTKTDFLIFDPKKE
Excerpt: Finally, we assessed our inhibitors against HPSE-mediated degradation of bona fide HSPGs in an ECM environment. Cultured bovine corneal endothelial cells secrete a subendothelial basement membrane material rich in proteoglycans, which can be radiolabeled by growth in the presence of ^35SO4^2− ([50]). Solubilized H^35S chains released from H^35SPGs by HPSE digestion can be resolved chromatographically, with HPSE inhibition leading to a corresponding loss of signal. […] We also tested inhibition of endogenous cellular HPSE using this assay format. […]
ECM coated 35 mm culture dishes containing 35S labelled HS were prepared as previously described (10). Briefly, bovine corneal endothelial cells were plated at an initial density of 2x10^5 cells/ml, with 4% dextran T-40 (Sigma) included in the growth medium. Na235SO4 (25 µCi/ml) was added to the incubation medium on days 2 and 5 after seeding. On day 12, subendothelial ECM is exposed by dissolving the cells with PBS containing 0.5% Triton X-100 and 20 mM NH4OH, followed by four washes with PBS.
For HS-degradation assays, ECM coated dishes were incubated with 200 ng recombinant HPSE in 1 mL reaction mixture (10 mM buffer Phosphate-Citrate pH 6.0, 50 mM NaCl, 1 mM DTT, 1 mM CaCl2) containing HPSE inhibitors or DMSO control. Plates were incubated at 37°C for 5 h, then assay medium collected and applied to a 0.9×30 cm Sepharose 6B size exclusion column. The Sepharose 6B column was eluted with PBS, and 35S radioactivity of 0.2 mL fractions quantitated using a liquid scintillation analyzer (Packard BioScience) (11). […]
Matrigel and […]
non-migrating cells in the upper side of the Boyden filter were removed by swabbing, then invading cells on the bottom side of the transwell filter imaged for analysis. […]
B16 melanoma - Twenty minutes before tumor cell inoculation, C57BL/J6 mice (n=5) were injected intraperitoneally with vehicle alone (PBS), compound 2 (300 nmol/mouse), or SST0001 (150 µg/mouse). Mice were subsequently intravenously inoculated with 1.5x105

human platelet HPSE = molecular target: T2, human platelet HPSE (Homo sapiens, UniProt Q9Y251); test: cABPP of human platelet lysates, HPSE band
T2 sequence (Q9Y251 158-543 limits assumed): T1 sequence (Q9Y251 158-543 limits assumed)
T2 sequence (Q9Y251 36-109 limits assumed): T1 sequence (Q9Y251 36-109 limits assumed)

SMILES: CC(=O)N[C@H]1[C@@H](O[C@H]2[C@H](O)[C@@H](O)[C@@H]3O[C@@H]3[C@@H]2C(=O)O)O[C@H](CO)[C@@H](O)[C@@H]1O [compound 2]
- inhibition of recombinant HPSE-mediated H35SPG cleavage (HPSE; 200 ng HPSE, pH 6.0, 37°C, 5 h): robust, dose-dependent inhibition
- level of inhibition of H35SPG cleavage relative to 4.6 μM 10 (HPSE; 1 μM 2 or 3 compared to 4.6 μM 10): comparable levels of inhibition
- IC50 (human platelet HPSE; HPSE IC50, human platelet lysates, cABPP, n = 3): ~530 nM and 530 nM
- selectivity of HPSE inhibition in platelet lysates (human platelet HPSE; human platelet lysates containing both HPSE and GUSB): highly selective inhibition of human platelet HPSE
